We go through 31 compounds from patent US7700602B2, “Amino-5,5-diphenylimidazolone derivatives for the inhibition of β-secretase” (Wyeth LLC, priority 2004, dated 2010).

For series [1], the target named is human BACE1 (Homo sapiens, UniProt P56817). Kind of series: Fluorescent kinetic assay, inhibition of BACE1 (WABC-6 peptide substrate).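 Also: fluorescence monitored at 320 nm excitation and 420 nm emission every 40 s over 30 min, with the substrate cleavage rate taken from the linear slope.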 Format: biochemical. The note with it: 10 nM enzyme, 25 μM substrate WABC-6, pH 4.5, room temperature; read-out: IC50 (μM) BACE1.
For series [2], the target named is T1, human BACE2 (Homo sapiens, UniProt Q9Y5Z0).
T1 sequence (Q9Y5Z0 63-518): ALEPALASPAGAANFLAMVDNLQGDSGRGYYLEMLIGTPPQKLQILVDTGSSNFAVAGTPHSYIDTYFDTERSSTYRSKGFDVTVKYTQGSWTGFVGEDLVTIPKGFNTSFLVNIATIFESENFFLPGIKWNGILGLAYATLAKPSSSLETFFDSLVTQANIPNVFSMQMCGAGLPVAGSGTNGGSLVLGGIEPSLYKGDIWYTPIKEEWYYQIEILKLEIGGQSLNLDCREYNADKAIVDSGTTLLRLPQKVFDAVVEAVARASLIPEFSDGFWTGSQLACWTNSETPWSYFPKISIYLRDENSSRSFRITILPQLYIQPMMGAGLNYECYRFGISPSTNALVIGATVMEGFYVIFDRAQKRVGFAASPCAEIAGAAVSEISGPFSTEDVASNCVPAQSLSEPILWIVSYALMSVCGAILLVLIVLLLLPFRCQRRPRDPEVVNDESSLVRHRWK
Kind of series: Fluorescent Kinetic Assay for Human Recombinant BACE 2 (selectivity BACE1/BACE2).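 Also: cleavage rate from the linear slope of fluorescence (excitation 320 nm, emission 420 nm) recorded every 40 s over 30 min at room temperature, sodium acetate buffer with 0.05% CHAPS.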 The series is classed as biochemical. The note with it: selectivity BACE1 over BACE2; 1.5 nM human BACE2, 25 μM substrate, pH 4.5.

A value given as a limit tells only on which side of the number the result lay.

Sequence of human BACE1 (P56817 46-501): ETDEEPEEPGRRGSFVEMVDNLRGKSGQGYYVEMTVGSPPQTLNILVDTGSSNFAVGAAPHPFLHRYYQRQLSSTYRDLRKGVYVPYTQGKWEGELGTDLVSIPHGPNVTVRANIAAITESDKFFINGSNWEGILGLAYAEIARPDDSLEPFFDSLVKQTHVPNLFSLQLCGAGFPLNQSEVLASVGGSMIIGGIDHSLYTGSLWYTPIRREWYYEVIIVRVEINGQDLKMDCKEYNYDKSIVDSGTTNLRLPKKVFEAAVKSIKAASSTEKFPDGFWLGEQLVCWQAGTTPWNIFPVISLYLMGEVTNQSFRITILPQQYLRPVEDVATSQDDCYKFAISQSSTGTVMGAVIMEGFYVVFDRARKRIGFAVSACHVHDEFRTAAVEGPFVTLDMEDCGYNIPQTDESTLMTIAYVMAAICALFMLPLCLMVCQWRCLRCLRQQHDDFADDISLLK

`CCCNC1=NC(c2cccc(-c3cncnc3)c2)(c2ccc(OCCC)c(C)c2)C(=O)N1C` (stereo not drawn) came in with a melting point of 64 to 66 °C.
As to `COc1cc(C2(c3cccc(-c4cccnc4)c3)N=C(N)N(C)C2=O)cc(OC)c1OC` (stereo not drawn) [Example 23], the melting point was in the range of 104 to 107 °C. Also, the IC50 in series [1] is 0.01 to 0.1 µM. Moreover, the BACE1/BACE2 selectivity result in series [2] is reported as “II (II = 10-100-fold selectivity)”.
The like results for `CN1C(=O)C(c2cccc(OC(F)(F)F)c2)(c2cccc(-c3cccnc3)c2)N=C1N` (stereo not drawn) [Example 25] were, in that order, 198 °C, 0.01 to 0.1 µM and “II (II = 10-100-fold selectivity)”.
Consider `CN1C(=O)C(c2cccc(-c3cccnc3)c2)(c2ccc(OC(F)(F)F)c(C(F)(F)F)c2)N=C1N` (stereo not drawn) [Example 26], for which the melting point is 98 °C. Besides, the IC50 in series [1] fell in the range of 0.01 to 0.1 µM. Further, the BACE1/BACE2 selectivity result in series [2] is reported as “II (II = 10-100-fold selectivity)”.
The like results for `CCOc1ccc(C2(c3ccc(F)c(-c4cccnc4)c3)N=C(N)N(C)C2=O)cc1OCC` (stereo not drawn) [Example 27] were, in that order, 99 to 100 °C, 0.01 to 0.1 µM and “II (II = 10-100-fold selectivity)”.
The like results for `CN1C(=O)C(c2ccc(OC(F)(F)F)c(Cl)c2)(c2ccc(F)c(-c3cccnc3)c2)N=C1N` (stereo not drawn) [Example 28] were, in that order, 99 to 102 °C, 0.01 to 0.1 µM and “II (II = 10-100-fold selectivity)”.
The like results for `COc1ccc(C2(c3cccc(-c4ccncc4)c3)N=C(N)N(C)C2=O)cc1C` (stereo not drawn) [Example 36, 2-Amino-5-(4-methoxy-3-methylphenyl)-3-methyl-5-(3-pyridin-4-ylphenyl)-3,5-dihydro-4H-imidazol-4-one] were, in that order, 175 °C, 0.01 to 0.1 µM and “III (III = <10-fold selectivity)”.
For the compound `CN1C(=O)C(c2ccc(OC(F)(F)F)c(F)c2)(c2ccc(F)c(-c3cncc(Cl)c3)c2)N=C1N` (stereo not drawn) [Example 42], the melting point is 201 to 203 °C. Moreover, the IC50 in series [1] is 0.11 to 1 µM. For the same compound, the BACE1/BACE2 selectivity entry in series [2] is recorded as “II (II = 10-100-fold selectivity)”.
The like results for `CCOc1ccc(C2(c3cccc(-c4cncnc4)c3)N=C(N)N(C)C2=O)cc1OCC` (stereo not drawn) [Example 44] were, in that order, 100 to 105 °C, 0.01 to 0.1 µM and “II (II = 10-100-fold selectivity)”.
For `CN1C(=O)C(c2ccc(OC(F)(F)F)cc2)(c2ccc(F)c(-c3cncc(Cl)c3)c2)N=C1N` (stereo not drawn) [Example 46] the same measures were 241 to 243 °C, 0.11 to 1 µM and “II (II = 10-100-fold selectivity)”.
With `CN1C(=O)C(c2ccc(OC(F)(F)F)cc2)(c2ccc(F)c(-c3cncc(F)c3)c2)N=C1N` (stereo not drawn) [Example 47], the melting point lay within 216 to 218 °C. Also, the IC50 in series [1] was 0.11 to 1 µM. Further, the BACE1/BACE2 selectivity result in series [2] was “II (II = 10-100-fold selectivity)”.
On to `CN1C(=O)C(c2ccc(OC(F)(F)F)cc2)(c2ccc(Cl)c(-c3cncnc3)c2)N=C1N` (stereo not drawn) [Example 49], for which the melting point lay in the range of 124 to 129 °C. Also, the IC50 in series [1] was 0.11 to 1 µM. Further, in series [2], the BACE1/BACE2 selectivity entry is “I (I = >100-fold selectivity)”.
For `CN1C(=O)C(c2ccc(OC(F)(F)F)cc2)(c2ccc(F)c(-c3cccnc3)c2)N=C1N` (stereo not drawn) [Example 50] the same measures were 134 °C, 0.01 to 0.1 µM and “II (II = 10-100-fold selectivity)”.
For `COc1cncc(-c2cccc(C3(c4ccc(OC(F)(F)F)cc4)N=C(N)N(C)C3=O)c2)c1` (stereo not drawn) [Example 51] the same measures were 212 °C, 0.01 to 0.1 µM and “III (III = <10-fold selectivity)”.
For `COc1ccc(C2(c3ccc(F)c(-c4cncnc4)c3)N=C(N)N(C)C2=O)cc1C(F)(F)F` (stereo not drawn) [Example 56] the same measures were 115 °C, 0.01 to 0.1 µM and “I (I = >100-fold selectivity)”.
Compound `CCOc1ccc(C2(c3ccc(F)c(-c4cncnc4)c3)N=C(N)N(C)C2=O)cc1OCC` (stereo not drawn) [Example 86] yielded a melting point of 95 to 98 °C. Besides, the IC50 in series [1] was in the range of 0.01 to 0.1 µM. Besides, the BACE1/BACE2 selectivity entry in series [2] is on record as “I (I = >100-fold selectivity)”.
In turn, `CN1C(=O)C(c2ccc(SC(F)(F)F)cc2)(c2ccc(F)c(-c3cccnc3F)c2)N=C1N` (stereo not drawn) [Example 93] registered a melting point of 95 °C. Further, the IC50 in series [1] was in the range of 0.01 to 0.1 µM. In addition, the BACE1/BACE2 selectivity result in series [2] is “II (II = 10-100-fold selectivity)”.
For `CN1C(=O)C(c2ccc(SC(F)(F)F)cc2)(c2ccc(F)c(-c3cncnc3)c2)N=C1N` (stereo not drawn) [Example 94] the same measures were 183 °C, 0.11 to 1 µM and “II (II = 10-100-fold selectivity)”.
For `CN1C(=O)C(c2ccc(OC(F)F)cc2)(c2ccc(F)c(-c3cccnc3)c2)N=C1N` (stereo not drawn) [Example 95] the same measures were 104 to 106 °C, 0.01 to 0.1 µM and “II (II = 10-100-fold selectivity)”.
The like results for `CN1C(=O)C(c2ccc(OC(F)F)cc2)(c2ccc(F)c(-c3cccnc3F)c2)N=C1N` (stereo not drawn) [Example 96] were, in that order, 108 to 110 °C, 0.01 to 0.1 µM and “II (II = 10-100-fold selectivity)”.
Regarding `CN1C(=O)C(c2ccc(OC(F)F)cc2)(c2ccc(F)c(-c3cncnc3)c2)N=C1N` (stereo not drawn) [Example 97], the melting point is 103 to 105 °C. The IC50 in series [1] lay within 0.01 to 0.1 µM. Moreover, the BACE1/BACE2 selectivity entry in series [2] is given as “II (II = 10-100-fold selectivity)”.
Turning to `CCOc1ccc(C2(c3ccc(F)c(-c4cccnc4)c3)N=C(N)N(C)C2=O)cc1OCC` (stereo not drawn) [Example 99], the melting point was 93 to 95 °C. Moreover, the IC50 in series [1] fell in the range of 0.01 to 0.1 µM. Also, the BACE1/BACE2 selectivity entry in series [2] is recorded as “III (III = <10-fold selectivity)”.
For `CN1C(=O)C(c2ccc(OCCF)c(OCCF)c2)(c2ccc(F)c(-c3cccnc3F)c2)N=C1N` (stereo not drawn) [Example 104, 2-Amino-5-[3,4-bis-(2-fluoro-ethoxy)-phenyl]-5-[4-fluoro-3-(2-fluoro-pyridin-3-yl)-phenyl]-3-methyl-3,5-dihydro-imidazol-4-one] the same measures were 85 to 95 °C, 0.01 to 0.1 µM and “II (II = 10-100-fold selectivity)”.
For `CN1C(=O)C(c2ccc(OCCF)cc2)(c2ccc(F)c(-c3cccnc3F)c2)N=C1N` (stereo not drawn) [Example 108, 2-Amino-5-[4-(2-fluoroethoxy)phenyl]-5-[4-fluoro-3-(2-fluoropyridin-3-yl)phenyl]-3-methyl-3,5-dihydro-4H-imidazol-4-one] the same measures were 135 °C, 0.01 to 0.1 µM and “II (II = 10-100-fold selectivity)”.
`CN1C(=O)C(c2ccc(OCCF)cc2)(c2ccc(F)c(-c3cncnc3)c2)N=C1N` (stereo not drawn) [Example 109] registered a melting point of 123 °C. Also, in series [1], the concentration for half-maximal inhibition (IC50) was 0.01 to 0.1 µM. Besides, the BACE1/BACE2 selectivity result in series [2] is “II (II = 10-100-fold selectivity)”.
`CN1C(=O)C(c2ccc(OCCF)cc2)(c2cccc(-c3ccc(F)nc3)c2)N=C1N` (stereo not drawn) [Example 111] came in with a melting point of 100 °C. In series [1], the IC50 is 0.11 to 1 µM. Besides, in series [2], the BACE1/BACE2 selectivity entry was “III (III = <10-fold selectivity)”.
Consider `Cc1cc(C2(c3ccc(F)c(-c4cccnc4F)c3)N=C(N)N(C)C2=O)ccc1OCCF` (stereo not drawn) [Example 112], for which the melting point fell in the range of 105 to 106 °C. The IC50 in series [1] fell in the range of 0.01 to 0.1 µM. Also, in series [2], the BACE1/BACE2 selectivity entry was “II (II = 10-100-fold selectivity)”.
Take `Cc1cc(C2(c3cccc(-c4cncnc4)c3)N=C(N)N(C)C2=O)ccc1O[C@H](C)c1ccccc1` (stereo partly drawn) [Example 131, 2-amino-3-methyl-5-{3-methyl-4-[(1R)-1-phenylethoxy]phenyl}-5-(3-pyrimidin-5-ylphenyl)-3,5-dihydro-4H-imidazol-4-one]: the melting point was in the range of 112 to 114 °C. Also, the IC50 in series [1] lay in the range of 0.01 to 0.1 µM.
With `COc1ccc([C@@]2(c3ccc(F)c(-c4cnccc4F)c3)N=C(N)N(C)C2=O)cc1` [Example 143A, (5S)-2-Amino-5-[4-fluoro-3-(4-fluoropyridin-3-yl)phenyl]-5-(4-methoxyphenyl)-3-methyl-3,5-dihydro-4H-imidazol-4-one], the IC50 in series [1] was above 1 µM. Further, the BACE1/BACE2 selectivity entry in series [2] is reported as “III (III = <10-fold selectivity)”.
The like results for `COc1ccc([C@]2(c3ccc(F)c(-c4cnccc4F)c3)N=C(N)N(C)C2=O)cc1` [Example 143B, (5R)-2-Amino-5-[4-fluoro-3-(4-fluoropyridin-3-yl)phenyl]-5-(4-methoxyphenyl)-3-methyl-3,5-dihydro-4H-imidazol-4-one] were, in that order, 0.01 to 0.1 µM and “II (II = 10-100-fold selectivity)”.
The like results for `CN1CC(c2ccc(OC(F)(F)F)cc2)(c2ccc(F)c(-c3cccnc3F)c2)N=C1N` (stereo not drawn) [Example 144, 4-[4-Fluoro-3-(2-fluoropyridin-3-yl)phenyl]-1-methyl-4-(4-trifluoromethoxyphenyl)-4,5-dihydro-1H-imidazol-2-ylamine] were, in that order, 0.11 to 1 µM and “I (I = >100-fold selectivity)”.
